From US9023865B2, “Compounds that are ERK inhibitors” (Merck Sharp & Dohme Corp., priority 2011, dated 2015) come the findings set out here.

The target of the test is Active Human ERK2 (hERK2) (Homo sapiens (Human), UniProt P28482). Kind of test: Active Human ERK2 (hERK2) Activity Assay (IMAP-FP). The format is biochemical. The method, boiled down:
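Phosphorylation by activated human ERK2 (0.5 nM) at 30 μM ATP, peptide substrate 900 nM unlabeled with 80 nM labeled, proceeds 60 min. IMAP beads stop the reaction; after 60 min equilibration, product is measured by fluorescence polarization.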

The mark [1] stands for this setting: phosphorylated active hERK2, 30 μM ATP, average, read-out: ERK 2 Human average IC50.
[2] abbreviates: read-out: AERK2 IC50 (Active human ERK2 Activity Assay).

Where two headings read alike, the source gives them in different places.

Sequence of Active Human ERK2 (hERK2) (P28482 whole entry): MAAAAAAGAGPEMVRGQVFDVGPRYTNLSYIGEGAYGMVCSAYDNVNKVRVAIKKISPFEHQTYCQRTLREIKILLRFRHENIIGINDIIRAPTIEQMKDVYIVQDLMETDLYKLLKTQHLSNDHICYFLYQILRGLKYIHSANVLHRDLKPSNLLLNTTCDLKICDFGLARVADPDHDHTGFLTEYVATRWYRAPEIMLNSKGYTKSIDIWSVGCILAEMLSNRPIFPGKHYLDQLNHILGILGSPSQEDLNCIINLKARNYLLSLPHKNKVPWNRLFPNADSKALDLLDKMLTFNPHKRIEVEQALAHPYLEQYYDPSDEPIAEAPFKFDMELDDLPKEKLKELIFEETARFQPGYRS

What is called IC50 is the concentration needed to halve the response being measured. `Cc1cc(-c2n[nH]c3cc(NC(=O)NCC4CCCO4)ncc23)ccn1` (stereo not drawn) [Example 458]: under setting [1], the IC50 is 8.46 nM.

Take `COCCNC(=O)Nc1cc2[nH]nc(-c3ccc4nn(C)cc4c3)c2cn1` [Example 626]: the IC50 under setting [1] is 0.8 nM.

`C[C@@H](NC(=O)Nc1cc2[nH]nc(C(=O)NCC3(O)CCC3)c2cn1)c1ccccc1` [Example 136]: the IC50 under setting [1] is 11.9 nM.

With `CNC(c1n[nH]c2cc(NC(=O)N[C@H](C)c3ccccc3)ncc12)C(F)(F)F` (stereo partly drawn) [Example 564, 1-((R)-1-phenylethyl)-3-(3-(2,2,2-trifluoro-1-(methylamino)ethyl)-1H-pyrazolo[4,3-c]pyridin-6-yl)urea], the IC50 under setting [1] amounted to 50 nM.

Consider `Cc1cc(-c2n[nH]c3cc(NC(=O)NCC(c4ccccn4)N4CCOCC4)ncc23)ccn1` (stereo not drawn) [Example 384], for which the IC50 under setting [1] worked out at 24.7 nM.

As for `C[C@@H](NC(=O)Nc1cc2[nH]nc(C(C)(F)F)c2cn1)c1ccc(F)cc1` [Example 665], under setting [1], the IC50 was 193 nM.

For `CC(=O)OC1CCCC(NC(=O)Nc2cc3[nH]nc(-c4ccnc(C)c4)c3cn2)C1` (stereo not drawn) [Example 381], the IC50 under setting [1] is 6.71 nM.

Turning to `Cc1cc(-c2n[nH]c3cc(NC(=O)NC(C)(C)CO)ncc23)ccn1` [Example 203], the IC50 under setting [1] amounted to 104 nM.

On to `CO[C@H](C)CNC(=O)Nc1cc2[nH]nc(-c3ccc(F)cc3)c2cn1` [Example 634], for which the IC50 under setting [1] turned out to be 1.3 nM.

`Cc1cc(-c2n[nH]c3cc(NC(=O)NC4(c5ccccn5)CC4)ncc23)ccn1` [Example 351]: the IC50 under setting [1] was found to be 91.9 nM.

For `Cc1cc(-c2n[nH]c3cc(NC(=O)NCC4CCCCO4)ncc23)ccn1` (stereo not drawn) [Example 469], under setting [1], the IC50 worked out at 1.21 nM.

Regarding `C[C@@H](NC(=O)Nc1cc2[nH]nc(-c3cnn(C)c3)c2cn1)c1ccccc1` [Example 29, 1-[3-(1-methyl-1H-pyrazol-4-yl)-1H-pyrazolo[4,3-c]pyridin-6-yl]-3-[(1R)-1-phenylethyl]urea], the IC50 reads like this: under setting [1], 0.334 nM; under setting [2], 0.2 to 1.7 nM.

As for `C[C@@H](NC(=O)Nc1cc2[nH]nc(C(=O)NCC(F)(F)CN3CCOCC3)c2cn1)c1ccccc1` [Example 125], the IC50 under setting [1] turned out to be 6.53 nM.

For `CCCCNC(=O)Nc1cc2[nH]nc(C3CC3)c2cn1` [Example 156], the IC50 under setting [1] was 42.2 nM.

With `Cc1cc(-c2n[nH]c3cc(NC(=O)NCc4ccc(Cl)cc4C)ncc23)ccn1` [Example 515], the IC50 under setting [1] stood at 2.45 nM.

Turning to `COC[C@@H](NC(=O)Nc1cc2[nH]nc(-c3ccnc(C4CC4)c3)c2cn1)c1ccccc1` [Example 605], the IC50 under setting [1] came to 0.326 nM.

As to `Cc1cc(-c2n[nH]c3cc(NC(=O)NC(C)CO)ncc23)ccn1` (stereo not drawn) [Example 200], under setting [1], the IC50 stood at 25.6 nM.

As to `Cc1cc(-c2n[nH]c3cc(NC(=O)NCc4ncc(F)cc4F)ncc23)ccn1` [Example 450], the IC50 under setting [1] turned out to be 1.91 nM.

As to `Cc1cc(-c2n[nH]c3cc(NC(=O)N[C@@H](c4ccc(F)cc4)C(F)(F)F)ncc23)ccn1` [Example 280], the IC50 under setting [1] was 9.83 nM.

As to `Cc1cc(-c2n[nH]c3cc(NC(=O)N4CCN(c5ccc(F)cc5)C[C@H]4C)ncc23)ccn1` [Example 288], under setting [1], the IC50 was 2290 nM.

With `Cc1cc(-c2n[nH]c3cc(NC(=O)NCc4ccc(-c5ncc[nH]5)cc4)ncc23)ccn1` [Example 371], under setting [1], the IC50 amounted to 59 nM.

For the compound `C[C@@H](NC(=O)Nc1cc2[nH]nc(-c3cnn(C)c3)c2cn1)c1ccc(Cl)cc1` [Example 59, 1-[(1R)-1-(4-chlorophenyl)ethyl]-3-[3-(1-methyl-1H-pyrazol-4-yl)-1H-pyrazolo[4,3-c]pyridin-6-yl]urea], the concentration for half-maximal inhibition (IC50) by setting is: under setting [1], 0.514 nM; under setting [2], 0.2 to 1.7 nM.

For the compound `Cc1cc(-c2n[nH]c3cc(NC(=O)NC(CCN(C)C)c4ccccn4)ncc23)ccn1` (stereo not drawn) [Example 353], under setting [1], the IC50 was determined as 1.56 nM.

On to `Cc1cc(-c2n[nH]c3cc(NC(=O)NC4CNc5ccccc5C4)ncc23)ccn1` (stereo not drawn) [Example 501], for which the IC50 under setting [1] came out at 0.958 nM.

Regarding `Cc1cc(-c2n[nH]c3cc(NC(=O)NC4CC(=O)Nc5ccccc54)ncc23)ccn1` (stereo not drawn) [Example 407], the IC50 under setting [1] amounted to 5.72 nM.

Take `C[C@@H](NC(=O)Nc1cc2[nH]nc(-c3cnn(C)c3)c2cn1)c1ccc(F)c(Cl)c1` [Example 72, 1-[(1R)-1-(3-chloro-4-fluorophenyl)ethyl]-3-[3-(1-methyl-1H-pyrazol-4-yl)-1H-pyrazolo[4,3-c]pyridin-6-yl]urea]: the IC50 under setting [1] turned out to be 0.709 nM and the IC50 under setting [2] is 0.2 to 1.7 nM.

For the compound `CCc1c(NC(=O)N[C@H](C)c2ccccc2)ncc2c(-c3ccnc(C)c3)n[nH]c12` [Example 175], the half-inhibitory concentration (IC50) under setting [1] is 6.68 nM.

With `C[C@@H](NC(=O)Nc1cc2[nH]nc(C(F)F)c2cn1)c1ccccn1` [Example 678], the IC50 under setting [1] is 765 nM.

With `CN1CCOC(CNC(=O)Nc2cc3[nH]nc(-c4ccc(F)cc4)c3cn2)C1` (stereo not drawn) [Example 226], under setting [1], the IC50 worked out at 1.58 nM.

For the compound `COc1cccc(F)c1CN1CCC[C@@H](NC(=O)Nc2cc3[nH]nc(-c4ccc(F)cc4)c3cn2)C1` [Example 654], under setting [1], the IC50 was found to be 2.2 nM.

For the compound `Cc1cc(-c2n[nH]c3cc(NC(=O)NC4c5ccccc5CC4O)ncc23)ccn1` (stereo not drawn) [Example 332], under setting [1], the IC50 is 1.34 nM.

For the compound `Cc1cc(-c2n[nH]c3cc(NC(=O)NC4c5ccccc5OC(C)(C)C4O)ncc23)ccn1` (stereo not drawn) [Example 530], the IC50 under setting [1] was determined as 53.5 nM.

As for `Cc1cc(-c2n[nH]c3cc(NC(=O)NC(C)c4ccno4)ncc23)ccn1` (stereo not drawn) [Example 497], the IC50 under setting [1] came out at 1.53 nM.

`C[C@@H](NC(=O)Nc1cc2[nH]nc(CNCC(F)(F)F)c2cn1)c1ccccc1` [Example 561]: the IC50 under setting [1] was 15 nM.

Take `Cc1cc(-c2n[nH]c3cc(NC(=O)NC4CCc5cc(Cl)ccc54)ncc23)ccn1` (stereo not drawn) [Example 283]: the IC50 under setting [1] is 86 nM.

On to `Cc1cc(-c2n[nH]c3cc(NC(=O)N[C@H](C)Cc4ccccc4)ncc23)ccn1` [Example 606], for which the 50% inhibitory concentration (IC50) under setting [1] turned out to be 3.42 nM.

With `Cc1cc(-c2n[nH]c3cc(NC(=O)N[C@@H]4CCCc5ncccc54)ncc23)ccn1` [Example 261], the IC50 under setting [1] worked out at 1.49 nM.

Regarding `CCC(NC(=O)Nc1cc2[nH]nc(-c3ccnc(C)c3)c2cn1)c1ccc(Cl)cc1` (stereo not drawn) [Example 344], the IC50 under setting [1] amounted to 3.15 nM.

Turning to `Cc1cc(-c2n[nH]c3cc(NC(=O)N[C@H]4CCCOc5ccccc54)ncc23)ccn1` [Example 284], the IC50 under setting [1] came out at 8.28 nM.

In the case of `C[C@@H](NC(=O)Nc1cc2[nH]nc(-c3ccc4nn(C)cc4c3)c2cn1)c1cccc(Cl)c1` [Example 62, 1-[(1R)-1-(3-chlorophenyl)ethyl]-3-[3-(2-methyl-2H-indazol-5-yl)-1H-pyrazolo[4,3-c]pyridin-6-yl]urea], the concentration for half-maximal inhibition (IC50) is 0.672 nM under setting [1] and 0.2 to 1.7 nM under setting [2].

On to `C[C@@H](NC(=O)Nc1cc2[nH]nc(-c3cnn(CC(C)(C)O)c3)c2cn1)c1ccccc1` [Example 639], for which the 50% inhibitory concentration (IC50) under setting [1] was 0.535 nM.

Take `C[C@@H](NC(=O)Nc1cc2[nH]nc(-c3ccn(C)n3)c2cn1)c1ccccc1` [Example 90, 1-[3-(1-methyl-1H-pyrazol-3-yl)-1H-pyrazolo[4,3-c]pyridin-6-yl]-3-[(1R)-1-phenylethyl]urea]: under setting [1], the IC50 is 2.19 nM.

In the case of `Cc1cc(-c2n[nH]c3cc(NC(=O)N[C@H](C)C4CCCCC4)ncc23)ccn1` [Example 575], the IC50 under setting [1] was 1.2 nM.

For the compound `COC[C@H](NC(=O)Nc1cc2[nH]nc(-c3ccnc(C)c3)c2cn1)c1ccccn1` [Example 415], the IC50 under setting [1] is 20 nM.
